By IC50 is commonly meant the midpoint of a concentration-inhibition curve.

Consider 24 compounds from US5462952A, “Fenamate 1,3,4-thiadiazoles and 1,3,4-oxadiazoles as antiinflammatory agents” (Warner-Lambert Company, priority 1993, dated 1995).

For one assay, the target named is T1, 5-Lipoxygenase (Rattus norvegicus, UniProt P12527).
T1 construct: host or cells: RBL-1 (rat basophilic leukemia)
T1 sequence (P12527 1-673): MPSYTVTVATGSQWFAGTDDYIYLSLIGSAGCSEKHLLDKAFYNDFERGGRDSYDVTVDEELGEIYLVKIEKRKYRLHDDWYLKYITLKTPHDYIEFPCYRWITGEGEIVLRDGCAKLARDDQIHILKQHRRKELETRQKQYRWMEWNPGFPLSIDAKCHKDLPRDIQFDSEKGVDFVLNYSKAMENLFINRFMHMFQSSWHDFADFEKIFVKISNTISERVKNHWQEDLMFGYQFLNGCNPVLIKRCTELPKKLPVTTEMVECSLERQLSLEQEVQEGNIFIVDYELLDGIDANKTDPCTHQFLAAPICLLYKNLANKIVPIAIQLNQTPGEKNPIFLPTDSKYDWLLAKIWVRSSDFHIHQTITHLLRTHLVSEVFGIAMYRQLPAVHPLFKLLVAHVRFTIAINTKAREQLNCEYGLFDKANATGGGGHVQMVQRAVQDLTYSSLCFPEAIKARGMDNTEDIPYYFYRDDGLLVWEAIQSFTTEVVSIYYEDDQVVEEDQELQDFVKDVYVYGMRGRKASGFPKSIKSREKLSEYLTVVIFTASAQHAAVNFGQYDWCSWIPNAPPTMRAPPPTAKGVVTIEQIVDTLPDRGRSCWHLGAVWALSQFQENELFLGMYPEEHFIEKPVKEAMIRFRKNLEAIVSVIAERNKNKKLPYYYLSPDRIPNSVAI
Nature of the assay: ARBL whole cell 5-lipoxygenase assay (LTB4 formation in RBL-1 cells, A23187-stimulated). It is filed as cell-based. More on the design: key to ARBL, activity at the screening dose: Not active at the screening dose. The note with it: for ARBL, activity at the screening dose: Table 2, screening dose, class symbol N; for IC50: Table 2; for inhibition at 10 µM: Table 2, @ 10 μM. On the procedure:
(§1) The rat basophilic leukemia cell line (RBL-1) was obtained from the American Type Culture Collection (Rockville, Md.).
(§2) Radioimmunoassay (RIA) kits of LTB4 and PGF2α were obtained from Amersham (Arlington Heights, Ill.) and Seragen (Boston, Mass.), respectively.
(§3) RBL-1 cells are grown in suspension culture in Eagle's minimum essential medium supplemented with 12% fetal bovine serum at 37° C. in an incubator supplied with air-5% carbon dioxide. Cells are harvested by centrifugation. They are washed with cold phosphate buffered saline pH 7.4 (PBS; NaCl, 7.1 g; Na2 HPO4, 1.15 g; KH2 PO4, 0.2 g; and KCl, 0.2 g/l). Cells are finally suspended in PBS containing 1.0 mM calcium at a density of 2×10^6 cells/ml. Cells are incubated with and without test agent (in DMSO) (1% DMSO is without effect on arachidonic acid metabolism) for ten minutes at room temperature. Calcium ionophore A23187 (5 μM) is added and cells are incubated for seven minutes at 37° C. The reaction is stopped by chilling the tubes on ice for ten minutes. Cells are separated by centrifugation and the supernatant is stored at -20°. Aliquots (100 μl) are analyzed for LTB4 and PGF2α using radioimmunoassay kits as provided by the supplier.
(§4) Tables 1 and 2 contain biochemical data obtained from the whole cell assay described above as IC50 s which are calculated as the concentration of test compound causing 50% inhibition of LTB4 or PGF2α formation. Table 2 also provides the dose at which 40% of swelling is inhibited in the CFE-2 assay.

A further assay deals with Cyclooxygenase. Nature of the assay: ARBC whole cell cyclooxygenase assay (PGF2α formation in RBL-1 cells, A23187-stimulated). It is filed as cell-based, rat. More on the design: key to ARBC, activity at the screening dose: Not active at the screening dose. To be noted: for ARBC, activity at the screening dose: Table 2, screening dose. The protocol:
as §1, §2, §3, §4

Where [1] appears, read: Table 1, 16 μM, read-out: ARBL, % inhibition of LTB4 at 16 μM.
Where [2] appears, read: read-out: ARBL, % inhibition at given concentration.

Structures can show the parent of a compound that is named as a salt. Where two headings read alike, the source gives them in different places.

In the case of `CSc1nnc(-c2ccccc2Nc2c(Cl)ccc(C)c2Cl)s1` [Example 28, 2,6-Dichloro-3-methyl-N-[2-[5-(methylthio)-1,3,4-thiadiazol-2-yl]phenyl]benzenamine], the “ARBL, activity at the screening dose” value on 5-Lipoxygenase is listed as “N”. The “ARBC, % inhibition at given concentration” value in the assay on Cyclooxygenase (Table 2, @ 10 μM) was 60%.
In the case of `Nc1nnc(-c2ccccc2Nc2cccc(C(F)(F)F)c2)o1` [Example 16, 5-[2-[[3-(Trifluoromethyl)phenyl]amino]phenyl]-1,3,4-oxadiazol-2-amine], the results for the IC50 on 5-Lipoxygenase and with Cyclooxygenase (Table 2) were 680 nM and 7120 nM, respectively.
For `CSc1nnc(-c2ccccc2Nc2cccc(C(F)(F)F)c2)o1` [Example 24, N-[2-[5-(Methylthio)-1,3,4-oxadiazol-2-yl]phenyl]-3-trifluoromethyl benzenamine], the “ARBL, activity at the screening dose” value on 5-Lipoxygenase is “N”. Also, the “ARBC, % inhibition at given concentration” value in the assay with Cyclooxygenase (Table 2, @ 10 μM) came to 44%.
Turning to `S=c1[nH]nc(Cc2ccccc2Nc2c(Cl)cccc2Cl)o1` [Example 7, 5-[[2-[(2,6-Dichlorophenyl)amino]phenyl]methyl]-1,3,4-oxadiazol-2(3H)-thion], the inhibition at 16 µM at 5-Lipoxygenase (setting [1]) was 88%. In addition, in the assay on Cyclooxygenase (Table 1, 16 μM, class symbol N), the “ARBC, % inhibition of PGF2α at 16 μM” value is “N (Less than 40% inhibition at 16 μM)”.
On to `N=C(N)Nc1nnc(-c2ccccc2Nc2cccc(C(F)(F)F)c2)o1` [Example 27, 5-[2-[[3-(Trifluoromethyl)phenyl]amino]phenyl]-1,3,4-oxadiazol-2-yl-guanidine hydrochloride], for which the inhibition at 10 µM at 5-Lipoxygenase (setting [2]) came to 100%. The “ARBC, activity at the screening dose” value in the assay on Cyclooxygenase (class symbol N) is recorded as “N”.
For the compound `Cc1ccc(Cl)c(Nc2ccccc2-c2nnc(N)s2)c1Cl` [Example 4, 5-[2-[(2,6-Dichloro-3-methylphenyl)amino]phenyl]-1,3,4-thiadiazol-2-amine], the IC50 turned out to be 600 nM at 5-Lipoxygenase; 6100 nM with Cyclooxygenase (Table 1, footnote c); 6100 nM in the assay with Cyclooxygenase (Table 2).
Consider `Cc1ccc(Cl)c(Nc2ccccc2-c2n[nH]c(=S)o2)c1Cl` [Example 2, 5-[2-[(2,6-Dichloro-3-methylphenyl)amino]phenyl]-1,3,4-oxadiazol-2(3H)-thione], for which the inhibition at 16 µM at 5-Lipoxygenase (setting [1]) came out at 97%. The IC50 against 5-Lipoxygenase was 740 nM; with Cyclooxygenase (Table 1, footnote c), 700 nM; with Cyclooxygenase (Table 2), 700 nM.
With `CSc1nnc(-c2ccccc2Nc2cccc(C(F)(F)F)c2)s1` [Example 30, 3-Trifluoromethyl-N-[2-[5-(methylthio)-1,3,4-thiadiazol-2-yl]phenyl]benzenamine], at 5-Lipoxygenase (setting [2]), the inhibition at 10 µM came to 66%. The “ARBC, % inhibition at given concentration” value in the assay on Cyclooxygenase (Table 2, @ 10 μM) was determined as 44%.
`Cc1ccc(Cl)c(Nc2ccccc2-c2nnc(N)o2)c1Cl` [Example 17, 5-[2-[[2,6-Dichloro-3-methylphenyl]amino]phenyl]-1,3,4-oxadiazol-2-amine]: the inhibition at 10 µM on 5-Lipoxygenase (setting [2]) is 45%. Also, the “ARBC, activity at the screening dose” value with Cyclooxygenase (class symbol N) was “N”.
In the case of `Cc1ccc(Cl)c(Nc2ccccc2-c2nnc([S+](C)[O-])o2)c1Cl` (stereo not shown) [Example 21, 2,6-Dichloro-3-methyl-N-[2-[5-(methylsulfinyl)-1,3,4-oxadiazol-2-yl]phenyl]benzenamine], the IC50 was determined as 910 nM against 5-Lipoxygenase and 1790 nM in the assay with Cyclooxygenase (Table 2).
For the compound `CS(=O)(=O)c1nnc(-c2ccccc2Nc2cccc(C(F)(F)F)c2)o1` [Example 25, N-[2-[5-(Methylsulfonyl)-1,3,4-oxadiazol-2-yl]phenyl]-3-trifluoromethyl benzenamine], the “ARBL, activity at the screening dose” value on 5-Lipoxygenase is on record as “N”. Also, the “ARBC, % inhibition at given concentration” value in the assay with Cyclooxygenase (Table 2, @ 10 μM) worked out at 48%.
In turn, `Cc1cccc(Nc2ccccc2-c2n[nH]c(=S)o2)c1C` [Example 9, 5-[2-[(2,3-Dimethylphenyl)amino]phenyl]-1,3,4-oxadiazole-2(3H)-thione] gave a half-inhibitory concentration (IC50) against 5-Lipoxygenase of 1000 nM.
As to `Cc1ccc(Cl)c(Nc2ccccc2-c2n[nH]c(=O)o2)c1Cl` [Example 1], the “ARBL, activity at the screening dose” value on 5-Lipoxygenase is on record as “N”. In the assay with Cyclooxygenase (class symbol N), the “ARBC, activity at the screening dose” value is “N”.
As to `Cc1ccc(Cl)c(Nc2ccccc2-c2nnc([S+](C)[O-])s2)c1Cl` (stereo not shown) [Example 29, 2,6-Dichloro-3-methyl-N-[2-[5-(methylsulfinyl)-1,3,4-thiadiazol-2-yl]phenyl]benzenamine], the IC50 came out at 3300 nM at 5-Lipoxygenase and 8480 nM in the assay on Cyclooxygenase (Table 2).
For `Cc1cccc(Nc2ccccc2-c2n[nH]c(=O)o2)c1C` [Example 8, 5-[2-[(2,3-Dimethylphenyl)amino]phenyl]-1,3,4-oxadiazol-2(3H)-one], the “ARBL, activity at the screening dose” value on 5-Lipoxygenase is on record as “N”. Moreover, the “ARBC, activity at the screening dose” value with Cyclooxygenase (class symbol N) is “N”.
`N#CNc1nnc(-c2ccccc2Nc2cccc(C(F)(F)F)c2)o1` [Example 26, 5-[2-[[3-(Trifluoromethyl)phenyl]amino]phenyl]-1,3,4-oxadiazol-2-yl-cyanamide] came in with a half-inhibitory concentration (IC50) with Cyclooxygenase (Table 2) of 1040 nM.
For `Cc1ccc(Cl)c(Nc2ccccc2-c2nnc(S(C)(=O)=O)o2)c1Cl` [Example 20, 2,6-Dichloro-3-methyl-N-[2-[5-(methylsulfonyl)-1,3,4-oxadiazol-2-yl]phenyl]benzenamine], the IC50 against 5-Lipoxygenase stood at 6320 nM; in the assay with Cyclooxygenase (Table 2), 3000 nM.
On to `CSc1nnc(-c2ccccc2Nc2c(Cl)ccc(C)c2Cl)o1` [Example 19, 2,6-Dichloro-3-methyl-N-[2-[5-(methylthio)-1,3,4-oxadiazol-2-yl]phenyl]benzenamine], for which the “ARBL, activity at the screening dose” value on 5-Lipoxygenase is given as “N”. Moreover, in the assay with Cyclooxygenase (Table 2, @ 10 μM), the “ARBC, % inhibition at given concentration” value was 55%.
Consider `Cc1ccc(Cl)c(Nc2ccccc2-c2n[nH]c(=S)s2)c1Cl` [Example 5, 5-[2-[(2,6-Dichloro-3-methylphenyl)amino]phenyl]-1,3,4-thiadiazol-2(3H)-thione], for which the inhibition at 16 µM on 5-Lipoxygenase (Table 2, @ 16 μM, read-out: ARBL, % inhibition at given concentration) was determined as 100%. Moreover, in the assay with Cyclooxygenase (Table 2, @ 16 μM), the “ARBC, % inhibition at given concentration” value turned out to be 47%.
As for `Cc1ccc(Cl)c(Nc2ccccc2-c2nnco2)c1Cl` [Example 18, 2,6-Dichloro-3-methyl-N-[2-(1,3,4-oxadiazol-2-yl)phenyl]benzenamine], on 5-Lipoxygenase, the “ARBL, activity at the screening dose” value is given as “N”. In the assay on Cyclooxygenase (class symbol N), the “ARBC, activity at the screening dose” value is listed as “N”.
For the compound `Cc1ccc(Cl)c(Nc2ccccc2-c2nnc(NC(=N)N)o2)c1Cl` [Example 22, 5-[2-[(2,6-dichloro-3-methylphenyl)amino]phenyl]-1,3,4-oxadiazol-2-yl-guanidine monohydrochloride], the inhibition at 10 µM on 5-Lipoxygenase (setting [2]) amounted to 46%. Also, the “ARBC, activity at the screening dose” value with Cyclooxygenase (class symbol N) is listed as “N”.
Regarding `C[S+]([O-])c1nnc(-c2ccccc2Nc2cccc(C(F)(F)F)c2)s1` (stereo not shown) [Example 31], on 5-Lipoxygenase (setting [2]), the inhibition at 10 µM came to 100%. The “ARBC, % inhibition at given concentration” value in the assay on Cyclooxygenase (Table 2, @ 10 μM) came out at 51%.
On to `Nc1nnc(-c2ccccc2Nc2cccc(C(F)(F)F)c2)s1` [Example 10, 5-[2-[(3-Trifluoromethylphenyl)amino]phenyl]-1,3,4-thiadiazol-2-amine], for which the 50% inhibitory concentration (IC50) at 5-Lipoxygenase came out at 690 nM; in the assay with Cyclooxygenase (Table 2), 11000 nM.
As for `Cc1ccc(Cl)c(Nc2ccccc2-c2nnc(NC#N)o2)c1Cl` [Example 23, 5-[2-[(2,6-Dichloro-3-methylphenyl)amino]phenyl]-1,3,4-oxadiazol-2-yl-cyanamide], the IC50 against 5-Lipoxygenase worked out at 890 nM; in the assay on Cyclooxygenase (Table 2), 250 nM.
